Reference: US20120214862A1, “MODULATION OF FACTOR 7 EXPRESSION” (ISIS Pharmaceuticals, Inc., priority 2009, published 2012)
In the oligonucleotide strings, read from the 5' end, every base follows the letter of its sugar. An asterisk marks phosphorothioate; unmarked linkages are phosphodiester. Other units and linkages are bracketed, terminal groups are in braces. A string of capitals states the bases alone. e = 2'-O-(2-methoxyethyl) (MOE); [5mC] = 5-methylcytosine; d = 2'-deoxy (DNA)

Tested on: human Factor 7 mRNA
Test: Inhibition of human Factor 7 mRNA by 2-10-2 MOE shortmers in HepB3 cells, electroporation, 1,000 nM
Format: cell-based
Conditions: electroporation, 1,000 nM oligonucleotide, approximately 24 hours, relative to untreated control cells
Summary of the method: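 14-mer 2-10-2 2′-MOE gapmers, full phosphorothioate, 5-methylcytidines, electroporated at 1,000 nM into HepB3 cells (20,000/well). After ~24 h, mRNA quantified by real-time RT-PCR, normalized to RIBOGREEN total RNA; percent inhibition relative to untreated cells.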

Row | Substance | % inhibition of human Factor 7 mRNA [%]
1 | 435723 (antisense eG*e[5mC]*d[5mC]*dA*dG*d[5mC]*dA*dG*dA*dT*d[5mC]*dA*e[5mC]*eG) [compound 435723] | 68
2 | 435724 (antisense e[5mC]*eT*dG*dA*dG*dG*d[5mC]*d[5mC]*dA*dG*d[5mC]*dA*eG*eA) [compound 435724] | 52
3 | 435725 (antisense eG*e[5mC]*dA*dG*d[5mC]*d[5mC]*dT*dG*dA*dG*dG*d[5mC]*e[5mC]*eA) [compound 435725] | 79
4 | 435726 (antisense eG*e[5mC]*dA*dA*dT*dG*dA*dA*dG*dG*d[5mC]*dA*eG*eA) [compound 435726] | 26
5 | 435727 (antisense eT*eG*dG*dA*dG*dT*d[5mC]*dA*dG*d[5mC]*dA*dT*e[5mC]*eG) [compound 435727] | 73
6 | 435728 (antisense eA*e[5mC]*dA*d[5mC]*dA*dT*dG*dG*dA*dG*dT*d[5mC]*eA*eG) [compound 435728] | 16
7 | 435729 (antisense eA*e[5mC]*dA*dG*d[5mC]*dA*d[5mC]*dA*d[5mC]*dA*dT*dG*eG*eA) [compound 435729] | 30
8 | 435730 (antisense eT*eA*dA*dA*d[5mC]*dA*dA*d[5mC]*d[5mC]*dG*d[5mC]*d[5mC]*eT*eT) [compound 435730] | 49
9 | 435731 (antisense eG*eT*dG*dA*dG*dA*dG*d[5mC]*dT*dA*dA*dA*e[5mC]*eA) [compound 435731] | 11
10 | 435732 (antisense eG*eA*dA*dA*dA*dG*dT*dG*dA*dG*dA*dG*e[5mC]*eT) [compound 435732] | 0
11 | 435733 (antisense e[5mC]*eT*dG*dA*dA*dT*dT*dG*dT*d[5mC]*dT*dG*eA*eA) [compound 435733] | 5
12 | 435734 (antisense eA*eT*dG*d[5mC]*dT*dT*d[5mC]*dT*dG*dA*dA*dT*eT*eG) [compound 435734] | 16
13 | 435735 (antisense eT*eG*dG*dT*dG*dA*dT*dG*d[5mC]*dT*dT*d[5mC]*eT*eG) [compound 435735] | 81
14 | 435736 (antisense eA*eT*dG*d[5mC]*dA*dT*dG*dG*dT*dG*dA*dT*eG*e[5mC]) [compound 435736] | 50
15 | 435737 (antisense eG*eT*dG*d[5mC]*dA*dG*d[5mC]*d[5mC]*d[5mC]*dG*dG*d[5mC]*eA*e[5mC]) [compound 435737] | 70
16 | 435738 (antisense e[5mC]*eA*dG*dA*dG*dG*dA*dT*dG*dA*dG*d[5mC]*eA*e[5mC]) [compound 435738] | 16
17 | 435739 (antisense e[5mC]*eA*dT*d[5mC]*dT*d[5mC]*dA*dG*dA*dG*dG*dA*eT*eG) [compound 435739] | 5
18 | 435740 (antisense eT*e[5mC]*dA*dT*dT*dT*d[5mC]*dA*dG*dT*dG*dA*eT*eG) [compound 435740] | 0
19 | 435741 (antisense eA*eG*dG*dG*dT*dT*d[5mC]*dA*dT*dT*dT*d[5mC]*eA*eG) [compound 435741] | 6

Row | Substance | % inhibition of human Factor 7 mRNA [%]
20 | 435742 (antisense eA*eT*dG*dT*dG*dA*dG*dG*dG*dT*dT*d[5mC]*eA*eT) [compound 435742] | 11
21 | 435743 (antisense eG*e[5mC]*d[5mC]*dT*d[5mC]*dA*dA*dA*d[5mC]*dA*dT*d[5mC]*eT*eA) [compound 435743] | 40
22 | 435744 (antisense e[5mC]*eT*dA*d[5mC]*dA*dG*d[5mC]*d[5mC]*dT*d[5mC]*dA*dA*eA*e[5mC]) [compound 435744] | 19
23 | 435745 (antisense eG*eG*dG*dA*dG*d[5mC]*dT*dA*d[5mC]*dA*dG*d[5mC]*e[5mC]*eT) [compound 435745] | 0
24 | 435746 (antisense eA*eT*dT*dG*dA*d[5mC]*dA*dA*dG*dG*dG*d[5mC]*eT*eG) [compound 435746] | 32
25 | 435747 (antisense eA*eT*dA*dT*d[5mC]*dA*dT*dT*dG*dA*d[5mC]*dA*eA*eG) [compound 435747] | 0
26 | 435748 (antisense eT*e[5mC]*d[5mC]*d[5mC]*dA*dG*dG*dG*dT*d[5mC]*dT*d[5mC]*eT*eG) [compound 435748] | 18
27 | 435749 (antisense e[5mC]*eA*dG*d[5mC]*d[5mC]*dA*dG*dG*dG*d[5mC]*d[5mC]*dT*eG*eG) [compound 435749] | 29
28 | 435750 (antisense e[5mC]*eA*d[5mC]*dT*dG*d[5mC]*dA*dG*d[5mC]*d[5mC]*dA*dG*eG*eG) [compound 435750] | 14
29 | 435751 (antisense e[5mC]*eT*dT*dG*d[5mC]*d[5mC]*dA*dG*dG*dT*d[5mC]*d[5mC]*eT*e[5mC]) [compound 435751] | 28
30 | 435752 (antisense eT*eG*d[5mC]*dA*dG*d[5mC]*dT*dT*dG*d[5mC]*d[5mC]*dA*eG*eG) [compound 435752] | 12
31 | 435753 (antisense eA*eA*dG*dA*dG*dT*dG*d[5mC]*dA*dG*d[5mC]*dT*eT*eG) [compound 435753] | 9
32 | 435754 (antisense eT*e[5mC]*dA*dG*d[5mC]*dA*dA*dG*dA*dG*dT*dG*e[5mC]*eA) [compound 435754] | 16
33 | 435755 (antisense eG*eG*dG*dA*d[5mC]*dT*d[5mC]*dA*dG*d[5mC]*dA*dA*eG*eA) [compound 435755] | 0
34 | 435756 (antisense eT*eG*d[5mC]*d[5mC]*d[5mC]*dA*dG*dG*dA*d[5mC]*dG*dG*e[5mC]*e[5mC]) [compound 435756] | 20
35 | 435757 (antisense eT*eG*d[5mC]*d[5mC]*dT*dG*dA*dG*dT*dG*d[5mC]*d[5mC]*e[5mC]*e[5mC]) [compound 435757] | 51
36 | 435758 (antisense e[5mC]*e[5mC]*d[5mC]*dT*dG*dA*dG*d[5mC]*dT*dG*dG*dG*e[5mC]*eA) [compound 435758] | 4
37 | 435759 (antisense eG*eA*dG*d[5mC]*d[5mC]*dA*d[5mC]*dA*dG*dA*dG*d[5mC]*e[5mC]*eT) [compound 435759] | 11
38 | 435760 (antisense eT*e[5mC]*dT*dT*dG*dG*dG*dT*dG*dT*dG*dG*eA*eT) [compound 435760] | 17

Row | Substance | % inhibition of human Factor 7 mRNA [%]
39 | 435761 (antisense e[5mC]*eA*dG*dA*dT*dG*dA*dA*dA*dA*d[5mC]*dT*eT*eG) [compound 435761] | 5
40 | 435762 (antisense e[5mC]*eA*dG*dG*dT*dG*dT*dT*dA*dA*dG*dG*eT*eG) [compound 435762] | 0
41 | 435763 (antisense eA*eG*dG*dA*dG*dA*dA*dA*dG*dG*dT*d[5mC]*eA*eG) [compound 435763] | 2
42 | 435764 (antisense eT*eG*dA*dG*dA*dG*d[5mC]*dT*dG*d[5mC]*dA*d[5mC]*e[5mC]*eT) [compound 435764] | 8
43 | 435765 (antisense e[5mC]*eA*dA*dA*dG*dT*dT*d[5mC]*dT*d[5mC]*dT*dG*e[5mC]*e[5mC]) [compound 435765] | 1
44 | 435766 (antisense eG*e[5mC]*dA*d[5mC]*d[5mC]*dT*dG*d[5mC]*dA*dG*d[5mC]*d[5mC]*eA*eG) [compound 435766] | 51
45 | 435767 (antisense e[5mC]*eA*d[5mC]*d[5mC]*dA*dA*dG*dT*dT*dT*dA*dT*eG*eG) [compound 435767] | 0
46 | 435768 (antisense eG*e[5mC]*d[5mC]*dT*dG*dG*dA*dT*dG*d[5mC]*dT*dG*eG*eT) [compound 435768] | 75
47 | 435769 (antisense eT*eT*d[5mC]*dT*dT*dT*dG*dA*dA*dA*dA*dA*eT*eA) [compound 435769] | 0
48 | 435770 (antisense e[5mC]*eT*d[5mC]*dT*dG*dA*dG*dA*dG*dG*d[5mC]*d[5mC]*e[5mC]*e[5mC]) [compound 435770] | 81
49 | 435771 (antisense eG*eT*d[5mC]*dA*dT*dA*dA*dG*dG*d[5mC]*d[5mC]*dA*eT*eG) [compound 435771] | 13
50 | 435772 (antisense eG*e[5mC]*dA*dG*dT*d[5mC]*d[5mC]*d[5mC]*dT*dG*d[5mC]*dT*e[5mC]*eA) [compound 435772] | 42
51 | 435773 (antisense e[5mC]*eA*dG*dG*dG*dA*dA*d[5mC]*dA*d[5mC]*d[5mC]*d[5mC]*eT*e[5mC]) [compound 435773] | 57
52 | 435774 (antisense eG*eT*d[5mC]*d[5mC]*d[5mC]*dA*dG*dG*dG*dA*dA*dG*eG*e[5mC]) [compound 435774] | 17
53 | 435775 (antisense eT*e[5mC]*dT*dG*dG*dA*dA*dG*dG*dA*dA*d[5mC]*eA*eG) [compound 435775] | 25
54 | 435776 (antisense eG*eG*dG*dA*d[5mC]*dA*d[5mC]*dT*d[5mC]*dA*d[5mC]*dA*e[5mC]*eT) [compound 435776] | 51
55 | 435777 (antisense e[5mC]*eT*dG*dA*dG*dG*dA*dT*dG*d[5mC]*dA*dG*eG*e[5mC]) [compound 435777] | 53
56 | 435778 (antisense eG*e[5mC]*dT*dA*d[5mC]*dT*dG*dG*dG*d[5mC]*d[5mC]*dA*e[5mC]*eG) [compound 435778] | 49
